Laboratory results taken from ChEMBL document CHEMBL2434949, “Evaluation of licorice flavonoids as protein tyrosine phosphatase 1B inhibitors” (Bioorg Med Chem Lett, 2013).
Calls of active or inactive are those of the source. The calls are words filed in the database; no cut-off is given here.

Legend:
[1] = target: T1, Tyrosine-protein phosphatase non-receptor type 1 (Homo sapiens) (UniProt P18031); assay: Inhibition of PTP1B (unknown origin) using p-nitrophenyl phosphate as substrate at 100 uM
T1 sequence (whole entry): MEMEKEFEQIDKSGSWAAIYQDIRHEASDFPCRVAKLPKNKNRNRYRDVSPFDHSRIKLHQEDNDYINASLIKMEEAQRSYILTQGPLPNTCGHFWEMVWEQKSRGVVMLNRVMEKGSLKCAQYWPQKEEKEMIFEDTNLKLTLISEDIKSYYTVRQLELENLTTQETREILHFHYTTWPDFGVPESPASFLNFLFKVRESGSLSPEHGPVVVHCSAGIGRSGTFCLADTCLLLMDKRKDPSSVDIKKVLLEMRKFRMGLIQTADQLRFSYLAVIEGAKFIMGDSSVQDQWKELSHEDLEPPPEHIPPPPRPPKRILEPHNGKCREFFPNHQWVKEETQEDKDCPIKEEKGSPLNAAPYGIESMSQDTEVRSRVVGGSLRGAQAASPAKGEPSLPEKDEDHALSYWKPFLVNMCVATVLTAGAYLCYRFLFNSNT

[2] = target: T2, Tyrosine-protein phosphatase non-receptor type 1 (Homo sapiens, UniProt P18031); assay: Inhibition of PTP1B (unknown origin) using p-nitrophenyl phosphate as substrate
T2 sequence (P18031 whole entry): T1 sequence (whole entry)

[3] = target: T1, Tyrosine-protein phosphatase non-receptor type 1 (Homo sapiens); assay: Inhibition of PTP1B in human HepG2 cells assessed as increase of insulin-induced Akt phosphorylation at Ser473 at 20 to 100 uM after 5 mins by Western blotting; assay type: cell-based
[4] = target: Dual specificity protein phosphatase 3 (Homo sapiens) (UniProt P51452); assay: Inhibition of VHR (unknown origin) at 100 uM
[5] = target: T3, Tyrosine-protein phosphatase non-receptor type 2 (Homo sapiens) (UniProt P17706); assay: Inhibition of TCPTP (unknown origin) at 100 uM
T3 sequence (whole entry): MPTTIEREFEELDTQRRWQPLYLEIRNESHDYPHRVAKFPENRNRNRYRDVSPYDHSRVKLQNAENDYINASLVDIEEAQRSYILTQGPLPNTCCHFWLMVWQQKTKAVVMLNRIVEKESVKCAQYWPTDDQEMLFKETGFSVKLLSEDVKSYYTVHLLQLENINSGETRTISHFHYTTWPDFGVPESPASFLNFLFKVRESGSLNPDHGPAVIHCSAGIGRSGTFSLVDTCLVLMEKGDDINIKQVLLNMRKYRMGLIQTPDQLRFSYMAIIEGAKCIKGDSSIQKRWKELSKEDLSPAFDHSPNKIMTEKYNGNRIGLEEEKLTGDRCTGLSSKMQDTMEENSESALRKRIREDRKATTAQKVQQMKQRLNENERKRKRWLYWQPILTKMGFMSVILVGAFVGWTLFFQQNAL

[6] = target: T1, Tyrosine-protein phosphatase non-receptor type 1 (Homo sapiens); assay: Non-competitive inhibition of PTP1B (unknown origin) using p-nitrophenyl phosphate as substrate by Lineweaver-Burk plot analysis
[7] = target: T1, Tyrosine-protein phosphatase non-receptor type 1 (Homo sapiens); assay: Mixed type inhibition of PTP1B (unknown origin) using p-nitrophenyl phosphate as substrate by Lineweaver-Burk plot analysis
[8] = target: T1, Tyrosine-protein phosphatase non-receptor type 1 (Homo sapiens)
Description: Competitive inhibition of PTP1B (unknown origin) using p-nitrophenyl phosphate as substrate by Lineweaver-Burk plot analysis

Chain of Dual specificity protein phosphatase 3 (Homo sapiens) (P51452 whole entry, looked up): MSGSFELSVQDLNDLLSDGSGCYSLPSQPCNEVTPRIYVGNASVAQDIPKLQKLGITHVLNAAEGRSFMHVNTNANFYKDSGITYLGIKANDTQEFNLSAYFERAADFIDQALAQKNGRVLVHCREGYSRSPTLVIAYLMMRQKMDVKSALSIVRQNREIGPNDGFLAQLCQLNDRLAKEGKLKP

Compound	inhibition [1] [%]	IC50 [2] [µM]	other results
COc1ccc(-c2coc3cc(O)c(OC)cc3c2=O)cc1	< 50		
O=c1cc(-c2ccc(O)cc2)oc2c([C@@H]3O[C@H](CO)[C@@H](O)[C@H](O)[C@H]3O)c(O)c([C@@H]3O[C@H](CO)[C@@H](O)[C@H](O)[C@H]3O)c(O)c12	< 50		
CC(C)=CCc1cc(C(=O)C2(c3cc(O)c(O)cc3/C=C3\Oc4c(ccc(O)c4CC=C(C)C)C3=O)Oc3cc(O)c(CC=C(C)C)cc3C2=O)ccc1O (centres undefined) [LICOAGRONE]		6	Activity [3]: Active; inhibition [4]: > 70%; inhibition [5]: 4%; Kiuc [6]: 6.3 µM
COc1cc(O[C@@H]2O[C@H](CO)[C@@H](O)[C@H](O)[C@H]2O)c(-c2coc3cc(O)c(OC)cc3c2=O)cc1O	< 50		
COc1ccc2c(c1)O[C@H]1c3ccc(O)c(CC=C(C)C)c3OC[C@@H]21	< 50		
CC(C)=CCc1cc(C[C@@H](O)C(=O)c2cc(CC=C(C)C)c(O)cc2O)ccc1O		90.5	
CC(C)=CCc1cc([C@@H]2CC(=O)c3c(O)cc(O)c(CC=C(C)C)c3O2)ccc1O [LESPEDEZAFLAVANONE B]		62.4	
O=c1cc(-c2ccc(O)cc2)oc2c([C@@H]3O[C@H](CO)[C@@H](O)[C@H](O)[C@H]3O)c(O)c([C@@H]3OC[C@H](O)[C@H](O)[C@H]3O)c(O)c12	< 50		
CC(C)=CCc1cc([C@]23Oc4cc(O)c(CC=C(C)C)cc4C(=O)[C@H]2[C@H]2c4ccc(O)cc4O[C@@H]4Oc5c(ccc(O)c5CC=C(C)C)[C@@]42O3)ccc1O [LICOAGRODIN]		11.5	inhibition [4]: 50%; inhibition [5]: 4%; inhibition [7]: Active
CC(C)=CCc1c(O)ccc2c1O/C(=C\c1ccc(O)c(O)c1)C2=O [LICOAGROAURONE]		23.9	inhibition [4]: 50%; inhibition [5]: 4%; Kic [8]: 24 µM
CC(C)=CCc1cc([C@H]2Oc3c(ccc(O)c3CC=C(C)C)C(=O)[C@@H]2O)ccc1O		75.1	
COc1c([C@H]2c3c(cc(O)c(O)c3OC)C=C(C(=O)c3ccc(O)cc3)[C@H]2C(=O)c2ccc(O)cc2)ccc(O)c1O (relative stereo)		36.2	
CCCCCCCCCCCCCCCC(=O)C1=C(O)[C@@H](CO)OC1=O		4.6	
CC(C)=CCc1cc([C@@H]2CC(=O)c3ccc(O)c(CC=C(C)C)c3O2)ccc1O [GLABROL]		37.5	
COc1c(CC=C(C)C)c(O)cc(O)c1-c1oc2cc(O)ccc2c1C			inhibition [4]: 35%; inhibition [5]: 4%
O=c1c(O[C@@H]2O[C@H](CO)[C@@H](O)[C@H](O)[C@H]2O)c(-c2ccc(O)cc2)oc2cc(O)cc(O)c12	< 50		
O=c1c(O[C@@H]2O[C@H](CO)[C@@H](O)[C@H](O)[C@H]2O)c(-c2ccc(O)c(O)c2)oc2cc(O)cc(O)c12	< 50		
CC(C)=CCc1cc(C(=O)CC(=O)c2cc(CC=C(C)C)c(O)cc2O)ccc1O		32.6	
O=C1C[C@@H](c2ccc(O[C@@H]3O[C@H](CO)[C@@H](O)[C@H](O)[C@H]3O)cc2)Oc2cc(O)ccc21	< 50		
CC(C)=CCc1c(O)ccc2c1O[C@H](c1ccc3c(c1)C(O)C(O)C(C)(C)O3)CC2=O (some centres undefined)	< 50		
CC(C)=CCc1c(O)ccc2c1oc(=O)c1c3ccc(O)cc3oc21	< 50		
COc1ccc(-c2coc3cc(O)c(OC)cc3c2=O)cc1O [ODORATIN]		70	
COc1cc(O)cc2occ(-c3cc(O)c(O)c(CC=C(C)C)c3)c(=O)c12			inhibition [4]: > 70%; inhibition [5]: 4%

More lines, main results first:

inhibition [1] [%]	IC50 [2] [µM]	Compound	other results
	57	COc1c(/C=C/C(=O)c2ccc(O)cc2)ccc(O)c1CC=C(C)C	
	73.4	CC1(C)C=Cc2c(ccc3c2OC[C@@H](c2ccc(O)cc2O)C3)O1 [GLABRIDIN]	
< 50		CC(C)=CCc1cc([C@@H]2CC(=O)c3ccc(O)cc3O2)ccc1O	
< 50		COc1ccc([C@@H]2COc3c(ccc4c3C=CC(C)(C)O4)C2)c(O)c1	
	44.3	CC1(C)C=Cc2cc(/C=C/C(=O)c3ccc(O)cc3O)ccc2O1	
	27.3	CC(C)=CCc1c(O)ccc(C(=O)/C=C/c2ccc(O)cc2)c1O [ISOBAVACHALCONE]	inhibition [4]: > 70%; inhibition [5]: 4%; inhibition [7]: Active
< 50		COc1c(/C=C/C(=O)c2ccc(O)cc2)ccc(O)c1O	
	66.3	CC1(C)C=Cc2c(ccc(-c3coc4cc(O)ccc4c3=O)c2O)O1 [GLABRONE]	
	52.2	CC(C)=CCc1c(O)ccc2c1O[C@H](c1ccc3c(c1)CC(O)C(C)(C)O3)CC2=O (some centres undefined)	
< 50		CC(C)=CCc1c(O)ccc2c1O[C@H](c1ccc3c(c1)C=CC(C)(C)O3)CC2=O	
	74.1	CC1(C)C=Cc2c(ccc(C(=O)/C=C/c3ccc(O)cc3)c2O)O1	
< 50		CC(C)=CCc1cc(-c2cc(=O)c3ccc(O)cc3o2)ccc1O	
< 50		COc1c(/C=C/C(=O)c2ccc(O)cc2)ccc2c1CC(C(C)(C)O)O2 (centres undefined)	
< 50		COc1cc(O)ccc1/C=C/C(=O)c1ccc(O)cc1	
< 50		CC1(C)C=Cc2cc(C(=O)CC(=O)c3ccc(O)cc3)c(O)cc2O1	
< 50		CC1(C)C=Cc2c(ccc3c2OC[C@@H](c2ccc(O)c4c2OC(C)(C)C=C4)C3)O1	
< 50		CC1(C)C=Cc2cc([C@@H]3CC(=O)c4ccc5c(c4O3)C=CC(C)(C)O5)ccc2O1	
< 50		O=c1cc(-c2ccc(O)cc2)oc2cc(O)ccc12	
< 50		O=C1C[C@@H](c2ccc(O)cc2)Oc2cc(O)ccc21	
	59.5	COc1c(/C=C/C(=O)c2ccc(O)c(O)c2)ccc(O)c1CC=C(C)C	
< 50		O=C(/C=C/c1ccc(O[C@@H]2O[C@H](CO)[C@@H](O)[C@H](O)[C@H]2O)cc1)c1ccc(O)cc1O	
